Results taken from patent US20150283227A1, “SYNTHETIC ENV PROTEINS” (priority 2012, published 2015).
pKd: −log10 of the molar value. “Also recorded” adds a separate entry of the source. Read-outs that look alike come from different tables or passages of the source. Marks after values point to notes of the source that are not given here.

Columns and labels:
BnAb PG9 = type: binding, human
Protocol: V1V2 glycopeptide binding Kd and rate constant measurements were carried out on a BIAcore 3000 instrument using an anti-human Ig Fc capture assay as described earlier (Alam, S. M.; McAdams, M.; Boren, D.; Rak, M.; Scearce, R. M.; Gao, F.; Camacho, Z. T.; Gewirth, D.; Kelsoe, G.; Chen, P.; Haynes, B. F. J. Immunol. 2007, 178, 4424-4435.). Anti-human IgG Fc antibody (Sigma Chemicals) was immobilized on a CM5 sensor chip to about 10000 response units (RU), and each antibody was captured to about 300 RU. Anti-RSV Synagis mAb was captured on the same sensor chip as a control surface. Non-specific binding and drift in signal was double referenced by subtracting binding to the control surface and blank buffer flow for each of the peptide binding interactions. All curve-fitting analyses were performed using global fit of multiple titrations to the 1:1 Langmuir model. All data analysis was performed using the BIAevaluation 4.1 analysis software (GE Healthcare).

BnAb CH01 = experiment: SPR binding of V1V2 peptides/glycopeptides to captured mAb CH01; set-up: species or system human
CH01 UCA = experiment: SPR binding to unmutated ancestor of CH01; set-up: species or system human
Protocol: (§1) Only the V1/V2 mAb CH58 bound to the glycan-deficient (aglycone) peptide (FIG. 9A). V1/V2 bNAbs ([…], CH01) bound weakly to V1/V2 GlcNAc2 peptide (FIG. 9B). In contrast, both bNAbs PG9 and CH01 bound avidly to the glycopeptides, V1/V2 Man3GlcNAc2 and V1/V2 Man5GlcNAc2 (FIGS. 9C and 9D). CH58 bound weakly to both glycopeptides. Each of the mAbs was captured on a human Fc specific IgG directly immobilized on a BIAcore CM5 sensor chip. Each of the V1/V2 peptides (3 min at 50 uL/min) was injected over the mAb captured surface and SPR binding was monitored on a BIAcore 3000 instrument. Non-specific binding of peptides was subtracted following measurement of signal on a surface with a control ant-RSV mab Synagis.
(§2) The binding Kd (disassociation constant) of the UAs ranges from about 0.15 to 0.2 μM.
(§3) V1V2 glycopeptide binding Kd and rate constant measurements were carried out on BIAcore 3000 instruments as described earlier (Alam et al, Immunol. 178(7):4424-4435 (2007), Alam et al, J. Virol. 82(1):115-125 (2008)). Anti-human IgG Fc antibody (Sigma Chemicals) was immobilized on either a CM3 or CM5 (CM3 for kinetics and Kd determination) sensor chip (to minimize non-specific binding of peptides to chip matrix) to about 5000 Resonance Unit (RU) and each antibody was captured to about 100-200 RU on individual flow cells, in addition to one flow cell with the control Synagis mAb on the same sensor chip. Non-specific binding of V1V2 glycopeptide was double-referenced by substracting the control surface and blank buffer flow for each mAb-V1V2 glycopeptide binding interaction. […] SPR curve fitting analysis was performed using global fit of multiple titrations to the 1:1 Langmuir model. All data analysis was performed using the BIAevaluation 4.1 analysis software (GE Healthcare).

CH58 UCA = experiment: SPR binding to unmutated ancestor of CH58; set-up: species or system human; details: Example 6; CH58 UCA; DMSO-oxidized dimer, 1-10 μg/mL
Protocol: as §1, §3

[1] = Circular dichroism analysis of V1V2 peptides; type: physicochemical; details: dimerized in 20% DMSO-phosphate buffer about 20 h
Protocol: Circular dichroism (CD) spectra of V1/V2 peptides were measured on an Aviv model 202 spectropolarimeter using a 1 mm path length quartz cuvette. The 20% DMSO-treated peptides were dialyzed against 20 mM phosphate buffer, pH 7.0 to remove DMSO using a dialysis cassette of MW cut-off 3500 Da. The CD spectra of peptides (at 100 200 μg/ml concentration) in phosphate buffer (pH 7.4) were recorded at 25° C. Three scans of the CD spectra of each peptide were averaged and the CD signal from phosphate buffer was subtracted out.

V2 mAb CH58 = experiment: SPR binding of V1V2 peptides/glycopeptides to captured V2 mAb CH58; set-up: species or system human
PG9 UCA = experiment: SPR binding to unmutated ancestor of PG9; set-up: species or system human
Protocol: as §1, §2, §3

[2] = Example 5, peptides 200 μg/mL, glycans 25 μg/mL over captured PG9
[3] = glycans in the absence of the V2 peptide backbone
[4] = Example 6, iodine-oxidized glycopeptide, 50 ug/mL
[5] = Example 6, spontaneously (air) oxidized, phosphate buffer, 50 ug/mL

For `CC(=O)NC1C(O)OC(CO)[C@@H](O[C@@H]2OC(CO)[C@@H](O[C@@H]3OC(CO[C@H]4OC(CO[C@H]5OC(CO)[C@@H](O)[C@H](O)C5O)[C@@H](O)[C@H](O[C@H]5O[C@@H](CO)[C@@H](O)C(O)C5O)C4O)[C@@H](O)[C@H](O[C@H]4O[C@@H](CO)[C@@H](O)C(O)C4O)C3O)[C@H](O)C2NC(C)=O)[C@@H]1O` (stereo partly drawn) [Man5GlcNAc2 glycan alone, reference compound], the “SPR binding to PG9” value (BnAb PG9; [2]) was “minimal to no binding”, the “SPR binding to PG9” value (BnAb PG9; Example 5, peptides 200 μg/mL, glycans 25 μg/mL over captured PG9, listed as Man5GlcNAc2 glycan) was “not detected” and the “SPR binding to CH01” value (BnAb CH01; [3]) was “not detected”.
With `CC(=O)NC1C(O)OC(CO)[C@@H](O[C@@H]2OC(CO)[C@@H](O[C@@H]3OC(CO[C@H]4OC(CO)[C@@H](O)[C@H](O)C4O)[C@@H](O)[C@H](O[C@H]4O[C@@H](CO)[C@@H](O)C(O)C4O)C3O)[C@H](O)C2NC(C)=O)[C@@H]1O` (stereo partly drawn) [Man3GlcNAc2 glycan alone, [α-D-mannopyranosyl-(1→3)]-[α-D-mannopyranosyl-(1→6)]-β-D-mannopyranosyl-(1→4)-2-deoxy-2-N-acetyl-β-D-glucopyranosyl-(1→4)-2-deoxy-2-N-acetyl-D-glucopyranoside, reference compound] the “SPR binding to PG9” value (BnAb PG9; [2]) was “minimal to no binding”, the “SPR binding to PG9” value (BnAb PG9; Example 5, peptides 200 μg/mL, glycans 25 μg/mL over captured PG9, listed as Man3GlcNAc2 glycan) was “not detected” and the “SPR binding to PG9” value (BnAb PG9; Example 5, peptides 200 μg/mL, glycans 25 μg/mL over captured PG9, listed as Man3GlcNAc2 oligosaccharide) was “not detected”. The “SPR binding to CH01” value (BnAb CH01; [3]) was “not detected”.
With Man3GlcNAc2 V1V2 the “SPR binding to CH01 UA” value (CH01 UCA; Example 1) was “binds”, the “SPR binding to CH01 UCA” value (CH01 UCA; Example 6) was “bound” and the pKd (CH01 UCA; Example 6, CH01 UCA, DMSO-oxidized dimer) was 5.74. For the same compound, the pKd (CH01 UCA; Example 6, CH01 UCA, DMSO-oxidized dimer, derived using faster component of dissociation phase) was 5.75, the ka (CH01 UCA; Table 1, CH01 UCA, DMSO-oxidized dimer) was 2.06 M^−1s^−1 (×10^3) and the pKd (CH58 UCA) was 6.22. The “β-strand (CD spectra deconvolution, K2D3)” value [1] was 33%, the “SPR binding to CH58” value (V2 mAb CH58; Example 1, antigen injected over captured mAb) was “bound weakly” and the “SPR binding to CH58” value (V2 mAb CH58; [4]) was “bound”. The “SPR binding to CH58” value (V2 mAb CH58; [5]) was “show binding”, the “SPR binding to PG9 UA” value (PG9 UCA; Example 1) was “binds” and the “SPR binding to PG9 UCA” value (PG9 UCA; Example 6) was “bound”. The pKd (PG9 UCA; Example 6, PG9 UCA, DMSO-oxidized dimer) was 5.96, the pKd (PG9 UCA; Example 6, PG9 UCA, DMSO-oxidized dimer, derived using faster component of dissociation phase) was 5.97 and the ka (PG9 UCA; Table 1, PG9 UCA, DMSO-oxidized dimer) was 5.33 M^−1s^−1 (×10^3). For the same compound, the “SPR binding to PG9” value (BnAb PG9; Example 1, peptide injected over mAb captured on anti-human Fc, BIAcore 3000, listed as V1/V2 Man3GlcNAc2) was “bound avidly; also recorded: bind selectively”, the pKd (BnAb PG9; Example 5, PG9, read-out: Kd (order of magnitude)) was ~7.00 and the pKd (BnAb PG9; Example 5, glycopeptide 1-40 μg/mL over captured PG9, not deliberately oxidized, global fit 1:1 Langmuir, read-out: Kd) was 6.92. For the same compound, the pKd (BnAb PG9; Example 6, PG9, glycopeptide fully oxidized in 20% DMSO (dimer), listed as Man3, read-out: Kd) was 7.43, the pKd (BnAb PG9; Example 6, PG9, glycopeptide fully oxidized in 20% DMSO (dimer), listed as Man3 GlcNAc2, read-out: Kd) was 7.43 and the “SPR binding to PG9” value (BnAb PG9; [5]) was “weak or no binding”. For the same compound, the ka (BnAb PG9; Table 1, PG9, glycopeptide fully oxidized in 20% DMSO (dimer)) was 3.97 M^−1s^−1 (×10^3), the “SPR binding to CH01” value (BnAb CH01; Example 1, peptide injected over captured mAb, listed as V1/V2 Man3GlcNAc2) was “bound avidly; also recorded: bind selectively” and the “SPR binding to CH01” value (BnAb CH01; [4]) was “not to the BnAbs CH01 or PG9”. The “SPR binding to CH01” value (BnAb CH01; [5]) was “weak or no binding” and the ka (BnAb CH01; Table 1, CH01, DMSO-oxidized dimer) was 9.97 M^−1s^−1 (×10^3).
